# Experiments:
# [1] = test system: H5N1 Avian influenza virus (A/VN/1203/04); assay: microbe, parasite or virus in culture; format: cell-based
# MDBK cells = conditions: bovine
# [2] = Influenza A virus, H5N1, MDBK, 72 h
smiles,measurement,setting,value
NC(=O)c1ncn([C@@H]2O[C@H](CO)[C@@H](O)[C@H]2O)n1 [Ribavirin],IC25,[1],1.01 µg/mL
same,IC50,"[1]; Influenza A virus, H5N1, MDBK",1.96 µg/mL
same,IC50,[1]; [2],1.69 µg/mL
same,IC90,[1]; [2],5.01 µg/mL
same,cytotoxicity profile (in words),MDBK cells,toxic at concentrations above that which protected 80% of cells from H5N1 infection
